Results taken from patent publication US9180118B2, “Thiadiazolidinone derivatives” (University of Rochester, priority 2006, dated 2015).
Where a SMILES comes first, the peptide text is derived from it. The star is where a group is joined. Cbz = O=C(OCc1ccccc1)*; CH2F = FC*

What was measured:
[1] = tested on: normal specimens (BM, CB, MPB); assay: Viability of normal specimens (BM, CB, MPB), Annexin V/7-AAD; type: cell-based, human; details: normal specimens
Method: (§1) The cells were isolated and processed as described. […] All drug treatments were performed in triplicate. […] Total viable cell numbers were determined using a flow cytometric apoptosis assay as described. Briefly, after 18 h of treatment, specimens were labeled with anti-CD34-PE (Becton Dickinson, San Jose, Calif.) for 20 minutes. […] The total number of events collected was 100,000. The percent viable cells was defined as AnnexinV^neg/7-AAD^neg cells on total (ungated) cells and on gates set for CD34^+ populations. • [1] Jordan, C. T., et al., The interleukin-3 receptor alpha chain is a unique marker for human acute myelogenous leukemia stem cells. Leukemia, 2000. 14(10): p. […] Lansdorp, P. M. and W. Dragowska, Long-term erythropoiesis from constant numbers of CD34+ cells in serum-free cultures initiated with highly purified progenitor cells from human bone marrow. […] Guzman, M. L., et al., Nuclear factor-kappaB is constitutively activated in primitive human acute myelogenous leukemia cells. […] 98(8): p.

primary AML specimens = assay: Viability of primary AML specimens, Annexin V/7-AAD flow cytometry; type: cell-based, human; details: for Rapid kinetics: cell death kinetics; for Cytotoxic AML: primary AML specimens
Method: as §1

[2] = listed as 2-chloro-1-(4,5-dibromo-thiophen-2-yl-ethanone)
[3] = pre-treated 1 h prior to 20 μM TDZD-8, viability at 24 hours

## O=C1Cc2c([nH]c3ccc(Br)cc23)-c2ncccc2N1 [1-Azakenpaullone]
[1]
  Cytotoxic Normal: No
Primary AML specimens
  Rapid kinetics: No
  Cytotoxic AML: No

## O=c1sn(Cc2ccccc2)c(=S)n1Cc1ccccc1 [2,4-Dibenzyl-5-oxothiadiazolidine-3-thione]
[1]
  Cytotoxic Normal: No
Primary AML specimens
  Rapid kinetics: No
  Cytotoxic AML: No

## O=C1CSC(=O)N1 [2,4-thiazolidinedione]
[1]
  Cytotoxic Normal: No
Primary AML specimens
  Rapid kinetics: No
  Cytotoxic AML: No

## O=C(CCl)c1cc(Br)c(Br)s1 [2-Chloro-1-(4,5-dibromo-thiophen-2-yl)-ethanone]
[1]
  Cytotoxic Normal: Yes
[1]; [2]
  Cytotoxic Normal: toxic to normal cells
Primary AML specimens
  Rapid kinetics: No
  Cytotoxic AML: Yes
Primary AML specimens; [2]
  Cytotoxic AML: could induce AML cell death

## O=C1NC(=O)C(=Cc2ccc3c(c2)OC(F)(F)O3)S1 [5-(2,2-Difluoro-benzo[1,3]dioxol-5-ylmethylene)-thiazolidine-2,4-dione]
Primary AML specimens
  Rapid kinetics: No

## Cc1cc(Nc2nc(-c3ccccc3)nc3ccccc23)n[nH]1 [(5-Methyl-1H-pyrazol-3-yl)-(2-phenylquinazolin-4-yl)amine]
[1]
  Cytotoxic Normal: No
Primary AML specimens
  Rapid kinetics: No
  Cytotoxic AML: No

## CCOc1ccc(C=C2SC(=O)N(CCN)C2=O)cc1.Cl [-(2-Aminoethyl)-5-((4-ethoxyphenyl)methylene)-2,4-thiazolidinedione, HCl]
[1]
  Cytotoxic Normal: No
Primary AML specimens
  Rapid kinetics: No
  Cytotoxic AML: No

## COc1ccc(CNC(=O)Nc2ncc([N+](=O)[O-])s2)cc1 [AR-A014418]
[1]
  Cytotoxic Normal: No
Primary AML specimens
  Rapid kinetics: No
  Cytotoxic AML: No

## O=C1Nc2cc(Br)ccc2/C1=C1/Nc2ccccc2/C1=N\O [BIO]
[1]
  Cytotoxic Normal: No
Primary AML specimens
  Cytotoxic AML: No

## O=C1NC(=O)C(Cc2ccc(OCCN3COc4ccccc4C3=O)cc2)S1 (stereo not drawn) [DRF 2519]
[1]
  Cytotoxic Normal: No
Primary AML specimens
  Rapid kinetics: No
  Cytotoxic AML: No

## CC(=O)N[C@@H](CS)C(=O)O [NAC, N-acetyl-cysteine]
Primary AML specimens; [3]
  effect of pretreatment on cell death induced by TDZD-8: completely blocked the cell death response

## Cn1cc(C2=C(c3ccc(Cl)cc3Cl)C(=O)NC2=O)c2ccccc21 [SB-216763]
[1]
  Cytotoxic Normal: No
Primary AML specimens
  Rapid kinetics: No
  Cytotoxic AML: No

## Nc1cccc(-c2cc3c(Oc4cccc(O)c4)ncnc3[nH]2)c1 [TWS119]
[1]
  Cytotoxic Normal: No
Primary AML specimens
  Rapid kinetics: No
  Cytotoxic AML: No

## Cc1c(C)c2c(c(C)c1O)CCC(C)(COc1ccc(CC3SC(=O)NC3=O)cc1)O2 (stereo not drawn) [Troglitazone]
[1]
  Cytotoxic Normal: Yes
Primary AML specimens
  Cytotoxic AML: Yes

## CC(NC(=O)C(NC(=O)OCc1ccccc1)C(C)C)C(=O)NC(CC(=O)O)C(=O)CF (stereo not drawn) [Z-VAD] (Cbz-Val-Ala-Asp-CH2F; configuration not given here)
Primary AML specimens; [3]
  abrogation of TDZD-8 induced death by pan-caspase inhibitor: no abrogation of death was observed
